Key:
Neutrophil [1] = experiment: Inhibition of PMA-induced oxidative burst in human neutrophils by chemiluminescence assay; format: functional, cell-based
Neutrophil [2] = experiment: Inhibition of PMA-induced oxidative burst in human neutrophils by APF assay; format: functional, cell-based
[3] = Cytotoxicity against human neutrophils assessed as cell viability at 50 uM after 4 hrs by trypan blue assay; format: cell-based, Neutrophil; settings: read-out: Activity
Neutrophil [4] = experiment: Inhibition of PMA-induced oxidative burst in human neutrophils by amplex red assay; format: functional, cell-based
Neutrophil [5] = experiment: Induction of apoptosis in human neutrophils assessed as viable cells at 50 uM after 4 hrs by Annexin-V-FLUOS staining based flow cytometry (reference value: 89.8%); format: functional; settings: read-out: Activity
Neutrophil [6] = experiment: Induction of apoptosis in human neutrophils assessed as early apoptotic cells at 50 uM after 4 hrs by Annexin-V-FLUOS staining based flow cytometry (reference value: 9.7%); format: functional
Neutrophil [7] = experiment: Induction of apoptosis in human neutrophils assessed as necrotic cells at 50 uM after 4 hrs by Annexin-V-FLUOS staining based flow cytometry (reference value: 0.1%); format: functional
Neutrophil [8] = experiment: Induction of apoptosis in human neutrophils assessed as late apoptotic cells at 50 uM after 4 hrs by Annexin-V-FLUOS staining based flow cytometry (reference value: 0.5%); format: functional
Neutrophil [9] = experiment: Inhibition of PMA-induced oxidative burst in human neutrophils at 50 uM by APF assay; format: functional
Neutrophil [10] = experiment: Inhibition of PMA-induced oxidative burst in human neutrophils at 50 uM by amplex red assay; format: functional
Neutrophil [11] = experiment: Inhibition of PMA-induced oxidative burst in human neutrophils at 50 uM by chemiluminescence assay; format: functional
Neutrophil [12] = experiment: Induction of apoptosis in human neutrophils assessed as late apoptotic cells at 50 uM after 4 hrs by Annexin-V-FLUOS staining based flow cytometry in presence of Z-DEVD-FMK caspase 3 (reference value: 0.8%); format: functional
Neutrophil [13] = experiment: Induction of apoptosis in human neutrophils assessed as viable cells at 50 uM after 4 hrs by Annexin-V-FLUOS staining based flow cytometry in presence of Z-DEVD-FMK caspase 3 (reference value: 89.0%); format: functional; settings: read-out: Activity
Neutrophil [14] = experiment: Induction of apoptosis in human neutrophils assessed as early apoptotic cells at 50 uM after 4 hrs by Annexin-V-FLUOS staining based flow cytometry in presence of Z-DEVD-FMK caspase 3 (reference value: 10.1%); format: functional
Neutrophil [15] = experiment: Induction of apoptosis in human neutrophils assessed as necrotic cells at 50 uM after 4 hrs by Annexin-V-FLUOS staining based flow cytometry in presence of Z-DEVD-FMK caspase 3 (reference value: 0.0%); format: functional

Compound | IC50 (Neutrophil [1]) [nM] | IC50 (Neutrophil [2]) [nM] | IC50 (Neutrophil [4]) [nM] | viability at 4 h, 50 µM [3] [%] | viability at 50 µM (Neutrophil [5]) [%] | Activity (Neutrophil [6]) [%] | Activity (Neutrophil [7]) [%] | Activity (Neutrophil [8]) [%] | inhibition at 50 µM (Neutrophil [9]) [%] | inhibition at 50 µM (Neutrophil [10]) [%] | inhibition at 50 µM (Neutrophil [11]) [%] | Activity (Neutrophil [12]) [%] | viability at 50 µM (Neutrophil [13]) [%] | Activity (Neutrophil [14]) [%] | Activity (Neutrophil [15]) [%]
O=c1cc(-c2ccccc2)oc2ccccc12 [FLAVONE] |  |  |  | 98 |  |  |  |  | < 40 | < 40 | < 40 |  |  |  | 
O=c1cc(-c2ccc(O)c(O)c2)oc2cc(O)cc(O)c12 [LUTEOLIN] | 5200 | 2200 | 1700 | 98 | 78.6 | 20.2 | 0.1 | 1.1 |  |  |  |  |  |  | 
O=c1cc(-c2ccc(O)c(O)c2)oc2c(Cl)c(O)cc(O)c12 | 2600 | 2600 | 1600 | 98 | 74.1 | 25.3 | 0 | 0.5 |  |  |  | 1 | 89.4 | 9.6 | 0
O=c1c(O)c(-c2ccc(O)c(O)c2)oc2cc(O)cc(O)c12 [QUERCETIN] | 2800 | 1800 | 2700 | 98 | 84.7 | 14.6 | 0.1 | 0.6 |  |  |  |  |  |  | 

Continued, in another order:

IC50 (Neutrophil [1]) [nM] | IC50 (Neutrophil [2]) [nM] | IC50 (Neutrophil [4]) [nM] | Compound | viability at 4 h, 50 µM [3] [%] | viability at 50 µM (Neutrophil [5]) [%] | Activity (Neutrophil [6]) [%] | Activity (Neutrophil [7]) [%] | Activity (Neutrophil [8]) [%] | inhibition at 50 µM (Neutrophil [9]) [%] | inhibition at 50 µM (Neutrophil [10]) [%] | inhibition at 50 µM (Neutrophil [11]) [%] | Activity (Neutrophil [12]) [%] | viability at 50 µM (Neutrophil [13]) [%] | Activity (Neutrophil [14]) [%] | Activity (Neutrophil [15]) [%]
2000 | 400 | 1400 | O=c1c(Cl)c(-c2ccc(O)c(O)c2)oc2cc(O)cc(O)c12 | 98 |  |  |  |  |  |  |  |  |  |  | 
3400 | 7200 | 6200 | O=c1cc(-c2ccc(O)c(O)c2)oc2c(Cl)c(O)c(Cl)c(O)c12 | 98 | 83.7 | 15.3 | 0.1 | 0.9 |  |  |  |  |  |  | 
4600 | 1800 | 1700 | O=c1c(Cl)c(-c2ccc(O)c(O)c2)oc2c(Cl)c(O)cc(O)c12 | 98 |  |  |  |  |  |  |  |  |  |  | 
